Values after ≈ are worked out from the molar mass of the structure shown. Where two headings read alike, the source gives them in different places.
Legend:
[1] = target: T1, glucocerebrosidase (Gcase) (Homo sapiens, UniProt P04062); assay: Glucocerebrosidase (Gcase) activation assay, 4-methylumbelliferyl-beta-D-glucopyranoside substrate, with saposin C; type: biochemical
T1 sequence (P04062 40-536): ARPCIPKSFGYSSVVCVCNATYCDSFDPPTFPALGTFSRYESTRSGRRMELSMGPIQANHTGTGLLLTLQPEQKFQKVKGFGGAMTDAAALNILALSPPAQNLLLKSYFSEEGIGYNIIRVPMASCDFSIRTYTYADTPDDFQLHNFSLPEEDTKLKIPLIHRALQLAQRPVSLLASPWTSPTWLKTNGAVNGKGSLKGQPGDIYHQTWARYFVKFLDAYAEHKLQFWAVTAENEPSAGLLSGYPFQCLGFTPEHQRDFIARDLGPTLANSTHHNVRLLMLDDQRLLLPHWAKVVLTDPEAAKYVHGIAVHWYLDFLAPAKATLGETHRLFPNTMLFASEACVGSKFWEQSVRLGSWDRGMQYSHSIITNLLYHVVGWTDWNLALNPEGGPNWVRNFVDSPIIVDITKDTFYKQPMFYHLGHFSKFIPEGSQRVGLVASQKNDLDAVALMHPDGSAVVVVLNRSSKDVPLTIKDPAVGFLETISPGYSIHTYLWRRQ
Procedure: The ability of exemplary compounds to activate glucocerebrosidase (Gcase) was measured.
A 484 μL aliquot of a 1.0 mg/mL solution of phosphatidylserine (PS) (Sigma P7769) in chloroform was evaporated under a stream of nitrogen for 1 hour. The lipid film was dissolved over 4 minutes of vigorous vortexing in 40 mL of 176 mM K2HPO4/50 mM citric acid (pH 4.7) containing 7.5 μL of triton X-100, resulting in a mixed micellar preparation with a composition of 0.32 mM triton and 0.37 mol % PS. 4-Methylumbelliferyl-beta-D-glucopyranoside (ACROS-337025000) was dissolved in the micellar solution to a final concentration of 2 mM for use as the reaction substrate.
Test compounds were diluted to the desired concentrations with dimethylsulfoxide (DMSO) from 10 mM stocks, and 0.41 μL of the DMSO compound mixture was added to 100 μL of micellar solution containing 10 nM GCase and 100 nM saposin C (Enzo ALX-201-262-C050). Pre-incubation was allowed to occur for 30 minutes at room temperature, after which the reaction was initiated by combining 25 μL of substrate solution with 25 μL of compound/GCase/saposin mixture. The reaction proceeded for 15 minutes at room temperature and was stopped by adding 150 μL of 1M glycine, pH 12.5. The endpoint of the reaction was monitored by measuring fluorescence intensity (excitation: 365 nm; emission: 440 nm) on a SpectraMax i3 instrument (Molecular Devices). Test compounds were screened at 1.0 and 0.1 μM final concentration, and subsequent 8-point dose response curves were obtained using 3-fold dilutions from a maximum final concentration of […].

[2] = Compound solubility in water; type: physicochemical
[3] = test compound at 0.1 μM, read-out: Percent Gcase Activation, 0.1 μM Test Compound
[4] = test compound at 1.0 μM, read-out: Percent Gcase Activation, 1 μM Test Compound
[5] = 0.1 μM test compound, read-out: Percent Gcase Activation 0.1 μM Test Compound
[6] = 1 μM test compound, read-out: Percent Gcase Activation 1 μM Test Compound

Row | Compound | activation at 0.1 µM [1, 3] | activation at 1 µM [1, 4] | solubility ([2]; in water) | activation at 0.1 µM [1, 5] | activation at 1 µM [1, 6] | solubility [2]
1 | Cc1sc(C#N)cc1-c1cc(C)n2cnc(C(=O)NC(C3CC3)C(F)(F)F)c2n1 (centres unmarked) [IV-95] | > 20% | > 60% | 2.5 µg/mL (≈ 5.96 µM) |  |  | 
2 | Cc1cc(-c2cccn3cnnc23)nc2c(C(=O)NC(C3CC3)C(F)(F)F)ncn12 (centres unmarked) [IV-42] | < 10% | > 60% | 2.1 µg/mL (≈ 5.06 µM) |  |  | 
3 | Cc1cc(-c2nccs2)nc2c(C(=O)NC(C3CC3)C(F)(F)F)ncn12 (centres unmarked) [IV-50] | 10 to 20% | > 60% | 1.5 µg/mL (≈ 3.93 µM) |  |  | 
4 | Cc1cc(-c2ccns2)nc2c(C(=O)N[C@@H](C3CC3)C(F)(F)F)ncn12 [IV-8] | 10 to 20% | > 60% | 19.7 µg/mL (≈ 51.7 µM) |  |  | 
5 | Cc1cc(-c2cccc3c2OCO3)nc2c(C(=O)N[C@H](C)C3CC3)ncn12 [IV-31] | 10 to 20% | > 60% | 1.4 µg/mL (≈ 3.84 µM) |  |  | 
6 | Cc1cc(-c2ccc(F)cc2C#N)nc2c(C(=O)NC(C3CC3)C(F)(F)F)ncn12 (centres unmarked) [IV-80] | > 20% | > 60% | 3.7 µg/mL (≈ 8.87 µM) |  |  | 
7 | Cc1cc(Oc2cccnc2)nc2c(C(=O)N[C@@H](C)C3CC3)ncn12 [IV-114] | < 10% | < 30% | 32.8 µg/mL (≈ 97.2 µM) |  |  | 
8 | Cc1cc(-c2csc(C#N)c2)nc2c(C(=O)NC(C3CC3)C(F)(F)F)ncn12 (centres unmarked) [IV-87] | > 20% | > 60% | 9.2 µg/mL (≈ 22.7 µM) |  |  | 
9 | Cc1cc(N2CCCC(F)(F)C2)nc2c(C(=O)NC(C3CC3)C(F)(F)F)ncn12 (centres unmarked) [IV-113] | > 20% | > 60% | 17.2 µg/mL (≈ 41.2 µM) |  |  | 
10 | Cc1cc(-c2ccc3scnc3c2)nc2c(C(=O)NC(C3CC3)C(F)(F)F)ncn12 (centres unmarked) [IV-49] | > 20% | > 60% | 0.6 µg/mL (≈ 1.39 µM) |  |  | 
11 | COc1cccc(-c2cc(C)n3cnc(C(=O)NC(C4CC4)C(F)(F)F)c3n2)n1 (centres unmarked) [IV-91] |  |  | 1.4 µg/mL (≈ 3.45 µM) |  |  | 
12 | CCCCO[C@H]1C[C@H]2CC[C@@H](C1)[C@H]2NC(=O)c1ncn2c(C)cc(COC)nc12 [IV-4] | > 20% | > 60% | 16.4 µg/mL (≈ 40.9 µM) |  |  | 
13 | Cc1cc(-c2cccc(OC(F)(F)F)n2)nc2c(C(=O)N[C@@H](C)C3CC3)ncn12 [IV-101] | > 20% | > 60% | 1.5 µg/mL (≈ 3.7 µM) |  |  | 
14 | Cc1nscc1-c1cc(C)n2cnc(C(=O)N[C@@H](C3CC3)C(F)(F)F)c2n1 [IV-97] | 10 to 20% | > 60% |  |  |  | 
15 | Cc1sncc1-c1cc(C)n2cnc(C(=O)N[C@@H](C3CC3)C(F)(F)F)c2n1 [IV-99] | > 20% | > 60% |  |  |  | 
16 | Cc1sncc1-c1cc(C)n2cnc(C(=O)N[C@H](C3CC3)C(F)(F)F)c2n1 [IV-98] | > 20% | > 60% |  |  |  | 
17 | Cc1cc(-c2ccc(C#N)o2)nc2c(C(=O)N[C@@H](C3CC3)C(F)(F)F)ncn12 [IV-35] | > 20% | > 60% |  |  |  | 
18 | Cc1cc(C#N)c(-c2cc(C)n3cnc(C(=O)N[C@@H](C4CC4)C(F)(F)F)c3n2)o1 [IV-94] | > 20% | > 60% |  |  |  | 
19 | Cc1cc(-c2cccc(OC(F)(F)F)n2)nc2c(C(=O)N[C@H](C)C3CC3)ncn12 [IV-12] | < 10% | 30 to 60% |  |  |  | 
20 | Cc1nscc1-c1cc(C)n2cnc(C(=O)N[C@H](C3CC3)C(F)(F)F)c2n1 [IV-96] | 10 to 20% | > 60% |  |  |  | 
21 | Cc1cc(C#N)c(-c2cc(C)n3cnc(C(=O)N[C@H](C4CC4)C(F)(F)F)c3n2)o1 [IV-93] | > 20% | > 60% |  |  |  | 
22 | Cc1cc(-c2ccc(C#N)o2)nc2c(C(=O)N[C@H](C3CC3)C(F)(F)F)ncn12 [IV-34] | > 20% | > 60% |  |  |  | 
23 | Cc1cc(-c2nccs2)nc2c(C(=O)NC(C)(C)C)ncn12 [IV-54] | < 10% | < 30% |  |  |  | 

Other lines, results leading:

Row | activation at 0.1 µM [1, 3] | activation at 1 µM [1, 4] | solubility ([2]; in water) | activation at 0.1 µM [1, 5] | activation at 1 µM [1, 6] | solubility [2] | Compound
24 |  |  |  | > 20% | > 60% | 10.5 µg/mL (≈ 29.8 µM) | CCc1cc(-c2ccc(F)cc2)nc2c(C(=O)N[C@@H](C)C3CC3)ncn12 [III-33]
25 |  |  |  | < 10% | 30 to 60% | 14.5 µg/mL (≈ 38.8 µM) | Cc1cc(-c2ccc(F)c(Cl)n2)nc2c(C(=O)N[C@@H](C)C3CC3)ncn12 [III-108]
26 |  |  |  | > 20% | > 60% | 7.8 µg/mL (≈ 22.3 µM) | COc1cccc(-c2cc(C)n3cnc(C(=O)NC(C)C4CC4)c3n2)c1 (centres unmarked) [III-55]
27 |  |  |  | 10 to 20% | > 60% | 8.7 µg/mL (≈ 22.8 µM) | COc1cc(C)n2cnc(C(=O)NC(c3ccc(F)cc3)C(F)(F)F)c2n1 (centres unmarked) [III-19]
28 |  |  |  | < 10% | < 30% | 24.5 µg/mL (≈ 79.2 µM) | Cc1cc(-c2cccnc2)nc2c(C(=O)NC(C)(C)C)ncn12 [III-89]
29 |  |  |  | < 10% | 30 to 60% | 12.8 µg/mL (≈ 36 µM) | Cc1cc(-c2ccnc(Cl)c2)nc2c(C(=O)N[C@@H](C)C3CC3)ncn12 [III-106]
30 |  |  |  | > 20% | > 60% | 1.5 µg/mL (≈ 3.71 µM) | COc1cccc(-c2cc(C)n3cnc(C(=O)NC(C4CC4)C(F)(F)F)c3n2)c1 (centres unmarked) [III-182]
31 |  |  |  | < 10% | < 30% | 8.5 µg/mL (≈ 25.1 µM) | Cc1cc(-c2ccnn2C)nc2c(C(=O)NC(C)(C)C3CC3)ncn12 [III-69]
32 |  |  |  | 10 to 20% | > 60% | 18.6 µg/mL (≈ 57 µM) | CC[C@H](C)NC(=O)c1ncn2c(C)cc(-c3cccc(F)c3)nc12 [III-132]
33 |  |  |  | < 10% | < 30% | 14.9 µg/mL (≈ 41.5 µM) | Cc1cc(-n2ccc(Cl)n2)nc2c(C(=O)NC(C)(C)C3CC3)ncn12 [III-142]
34 |  |  |  | < 10% | 30 to 60% | 8.8 µg/mL (≈ 24.8 µM) | Cc1cc(Oc2cccc(F)c2)nc2c(C(=O)N[C@@H](C)C3CC3)ncn12 [III-119]
35 |  |  |  | > 20% | > 60% | 0.4 µg/mL (≈ 1.02 µM) | Cc1cc(-c2cccc(F)c2)nc2c(C(=O)NC(C3CC3)C(F)(F)F)ncn12 (centres unmarked) [III-163]
36 |  |  |  | 10 to 20% | 30 to 60% | 25.4 µg/mL (≈ 71.3 µM) | Cc1cc(OC(C)C)nc2c(C(=O)NC(C3CC3)C(F)(F)F)ncn12 (centres unmarked) [III-177]
37 |  |  |  | < 10% | 30 to 60% | 24.9 µg/mL (≈ 73.4 µM) | Cc1cc(-c2cncc(F)c2)nc2c(C(=O)N[C@@H](C)C3CC3)ncn12 [III-105]
38 |  |  |  | > 20% | > 60% | 4.2 µg/mL (≈ 11.2 µM) | COc1cccc(-c2cc(C)n3cnc(C(=O)NC(C4CC4)C4CC4)c3n2)c1 [III-172]
39 |  |  |  | < 10% | 30 to 60% | 24.2 µg/mL (≈ 84.5 µM) | Cc1cc(C)n2cnc(C(=O)NC(C)C(C)C3CC3)c2n1 (centres unmarked) [III-47]
40 |  |  |  | < 10% | 30 to 60% | 21.9 µg/mL (≈ 54.2 µM) | Cc1cc(OC2CC(F)(F)C2)nc2c(C(=O)NC(C3CC3)C(F)(F)F)ncn12 (centres unmarked) [III-158]
41 |  |  |  | < 10% | 30 to 60% | 20.5 µg/mL (≈ 50.1 µM) | Cc1cc(N2CCC(C)(C)C2=O)nc2c(C(=O)NC(C3CC3)C(F)(F)F)ncn12 (centres unmarked) [III-144]
42 |  |  |  | < 10% | 30 to 60% |  | Cc1cc(Oc2ccc(F)cc2)nc2c(C(=O)NC(C)(C)C3CC3)ncn12 [III-77]
43 |  |  |  | < 10% | < 30% |  | Cc1nc2c(C(=O)N[C@@H](C)C3CC3)ncn2c(C)c1-c1ccc(F)cc1 [III-40]
44 |  |  |  | < 10% | < 30% |  | Cc1nc2c(C(=O)N[C@@H](C)C3CC3)ncn2cc1-c1ccc(F)cc1 [III-39]
45 |  |  |  | < 10% | 30 to 60% |  | Cc1cc(-c2cccnc2)nc2c(C(=O)NC(C)C(C)C3CC3)ncn12 (centres unmarked) [III-189]
46 |  |  |  | < 10% | < 30% |  | Cc1c(-c2ccc(F)cc2)cnc2c(C(=O)N[C@@H](C)C3CC3)ncn12 [III-38]
47 |  |  |  | < 10% | < 30% |  | Cc1cn2cnc(C(=O)N[C@@H](C)C3CC3)c2nc1-c1ccc(F)cc1 [III-32]
48 |  |  |  | < 10% | < 30% |  | Cc1cc(-c2ccc(C#N)c(O)c2)nc2c(C(=O)NC(C3CC3)C(F)(F)F)ncn12 (centres unmarked) [III-159]

Source: patent US9920061B2, “Imidazo[1,5-A]pyrimidinyl carboxamide compounds and their use in the treatment of medical disorders” (Lysosomal Therapeutics Inc., priority 2016, dated 2018)
